These molecules were tested against T1, Endothelin-1 receptor (Mus musculus, UniProt Q61614) (assay: Binding affinity for Endothelin A receptor was determined in murine 3T3 cells).
T1 sequence (Q61614 whole entry): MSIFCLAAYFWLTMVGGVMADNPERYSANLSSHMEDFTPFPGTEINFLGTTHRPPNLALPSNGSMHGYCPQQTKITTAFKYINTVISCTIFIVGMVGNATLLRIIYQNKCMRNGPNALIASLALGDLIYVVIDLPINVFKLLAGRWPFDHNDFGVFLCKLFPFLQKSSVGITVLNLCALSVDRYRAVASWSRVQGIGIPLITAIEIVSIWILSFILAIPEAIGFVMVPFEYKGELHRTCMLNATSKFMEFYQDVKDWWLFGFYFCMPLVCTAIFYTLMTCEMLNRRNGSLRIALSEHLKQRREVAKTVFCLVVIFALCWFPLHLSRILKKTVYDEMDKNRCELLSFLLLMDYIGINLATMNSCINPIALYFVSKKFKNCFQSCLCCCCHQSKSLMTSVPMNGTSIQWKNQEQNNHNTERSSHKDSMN
Format: cell-based, NIH3T3
With `CC[C@H](C)[C@H](NC(=O)[C@H](CC(=O)O)NC(=O)[C@@H](N)CCCNC(=O)[C@H](Cc1ccccc1)NC(C)=O)C(=O)N[C@H](C(=O)N[C@@H](Cc1c[nH]c2ccccc12)C(=O)O)[C@@H](C)CC` the IC50 was 230 nM. `CC[C@H](C)[C@H](NC(=O)[C@@H](NC(=O)[C@@H](CC(=O)O)NC(=O)[C@H](N)CCCNC(=O)[C@H](Cc1ccccc1)NC(C)=O)[C@@H](C)CC)C(=O)N[C@@H](Cc1c[nH]c2ccccc12)C(=O)O` gave an IC50 of 250 nM. Molecule `CC[C@H](C)[C@H](NC(=O)[C@H](CC(=O)O)NC(=O)[C@H](N)CCCNC(=O)[C@H](Cc1ccccc1)NC(C)=O)C(=O)N[C@@H](C(=O)N[C@@H](Cc1c[nH]c2ccccc12)C(=O)O)[C@@H](C)CC` has an IC50 of 900 nM.
